# Assay results published in patent publication US20080108513A1, “Cellular Arrays” (Northwestern University, priority 2006, published 2008).
# Target: T1, ERα (Homo sapiens, UniProt P03372)
# T1 sequence (P03372 1-595): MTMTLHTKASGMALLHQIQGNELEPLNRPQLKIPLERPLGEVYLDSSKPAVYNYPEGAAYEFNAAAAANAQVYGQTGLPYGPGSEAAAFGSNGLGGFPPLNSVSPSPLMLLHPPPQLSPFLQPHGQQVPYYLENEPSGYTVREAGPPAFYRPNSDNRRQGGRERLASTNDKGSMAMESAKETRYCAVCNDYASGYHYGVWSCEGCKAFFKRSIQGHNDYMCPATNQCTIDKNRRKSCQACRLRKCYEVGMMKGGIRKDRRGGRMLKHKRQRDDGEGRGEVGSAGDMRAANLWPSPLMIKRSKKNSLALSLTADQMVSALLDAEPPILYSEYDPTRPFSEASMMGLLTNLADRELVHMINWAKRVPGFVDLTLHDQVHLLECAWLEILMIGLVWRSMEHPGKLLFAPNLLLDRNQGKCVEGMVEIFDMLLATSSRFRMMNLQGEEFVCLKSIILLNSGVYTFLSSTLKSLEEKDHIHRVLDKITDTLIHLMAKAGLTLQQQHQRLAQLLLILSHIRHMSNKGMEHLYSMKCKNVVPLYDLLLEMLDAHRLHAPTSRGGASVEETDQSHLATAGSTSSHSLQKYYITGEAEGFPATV
smiles,measurement,setting,value
"C[C@]12CC[C@@H]3c4ccc(O)cc4C[C@@H](CCCCCCCCC[S+]([O-])CCCC(F)(F)C(F)(F)F)[C@H]3[C@@H]1CC[C@@H]2O (some centres unmarked) [FUL, fulvestrant]",blockade of ERα-stimulated activity by E2,"10^−6 M FUL with 10^−9 M E2, MCF-7 cells on array",complete blockade
same,effect on expression of the pLUC plasmid (CMV promoter),"MCF-7 cells on array, 10^−9 M E2 or 10^−9 M E2+10^−6 M FUL",lowered
